Our source for the Km, kcat and kcat/Km values is PMC8810776, “Gut microbiome of the largest living rodent harbors unprecedented enzymatic systems to degrade plant polysaccharides” (Nature Communications, 2022).

Holding throughout (assay): substrate saturation curve, initial velocities
One series deals with T1, CapGH97.
T1 construct: recombinant in E. coli BL21, pET28a, N-terminal 6xHis-tag cleaved with trypsin; gene of cluster CC102
Format: biochemical, Bacteroidaceae bacterium MAG57. Particulars: pH 7.0, 35 °C, 70 mM McIlvaine buffer, 5 mM CaCl2. An excerpt:
substrate saturation curve, initial velocities on CapGH97

For a further series, the system named is T2, CapGH43_12.
T2 construct: recombinant in E. coli BL21, pET28a, N-terminal 6xHis-tag cleaved with trypsin; gene of cluster CC102
The class given is biochemical, Bacteroidaceae bacterium MAG57. Particulars: pH 6.5, 35 °C, 70 mM McIlvaine buffer. The source says:
substrate saturation curve, initial velocities on CapGH43_12

In another series the test system is T3, CapGH173.
T3 construct: recombinant in E. coli BL21, pET28a, N-terminal 6xHis-tag cleaved with trypsin
Format: biochemical, Bacteroidales bacterium MAG42. The note with it: pH 7.5, 45 °C, 70 mM McIlvaine buffer. An excerpt: substrate saturation curve, initial velocities on CapGH173

The subject of series [1] is O=[N+]([O-])c1ccc(O[C@@H]2O[C@H](CO)[C@H](O)[C@H](O)[C@H]2O)cc1. Format: biochemical, Bacteroides xylanisolvens. The note with it: pH 7.5, 45 °C. The source says:
substrate saturation curve, initial velocities on BXY_26070 (CBK67650)

For `O=[N+]([O-])c1ccc(O[C@H]2O[C@H](CO)[C@H](O)[C@H](O)[C@H]2O)cc1` [pNP-α-D-Gal, p-nitrophenyl-α-D-galactopyranoside], the Km with CapGH97 was determined as 7700 ± 610 µM.

Take `O=[N+]([O-])c1ccc(O[C@@H]2O[C@@H](CO)[C@H](O)[C@H]2O)cc1` [pNP-α-L-AraF, p-nitrophenyl-α-L-arabinofuranoside]: the Km in the series on CapGH43_12 was determined as 2740 ± 290 µM. Take `O=[N+]([O-])c1ccc(O[C@@H]2O[C@H](CO)[C@H](O)[C@H](O)[C@H]2O)cc1` [pNP-β-D-Gal, p-nitrophenyl-β-D-galactopyranoside]: in the series with CapGH173, the Km came to 570 ± 50 µM. With “BXY_26070 (CBK67650) (Bacteroides xylanisolvens XB1A)”, in series [1], the Km was found to be 1190 ± 350 µM, the kcat worked out at 29.9 ± 1.95 s⁻¹ and the kcat/Km was 25100 M⁻¹ s⁻¹.
